Experimental findings from patent US10239849B2 (Merck Sharp & Dohme Corp., priority 2015, dated 2019) are described below.

What is called Emax is the greatest response seen or fitted, relative to the assay's reference.

Structures are written as SMILES.

The target of assay [1] is T1, glutathione-S-transferase (GST) tagged LXRalpha LBD (ligand binding domain) (Homo sapiens, UniProt Q13133).
T1 construct: purchased Invitrogen pv4655
T1 sequence (Q13133 209-447 limits assumed): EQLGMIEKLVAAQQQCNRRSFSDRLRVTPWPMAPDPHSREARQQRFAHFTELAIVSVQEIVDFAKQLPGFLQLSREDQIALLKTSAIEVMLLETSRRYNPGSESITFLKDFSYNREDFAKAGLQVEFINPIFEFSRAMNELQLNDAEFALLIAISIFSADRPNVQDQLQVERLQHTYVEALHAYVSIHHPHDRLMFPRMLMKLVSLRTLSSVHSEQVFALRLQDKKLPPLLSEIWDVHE
Kind of assay: LanthaScreen TR-FRET Liver X Receptor Coactivator Assay, LXR alpha-LBD. In kind it is biochemical. The note with it: for Emax: efficacy in relation to reference dual agonist T1317, read-out: LXR alpha activity at max dose (%) (Emax); for EC50: potency (Inflection Point) of co-activator recruitment, TR-FRET, read-out: LXR alpha IP. The protocol:
(§1) While running the LanthaScreen™ TR-FRET Liver X Receptor Coactivator Assay, LXR alpha-LBD or LXR beta-LBD was added to ligand test compounds followed by addition of a mixture of a fluorescein-labelled coactivator peptide and terbium-conjugated anti-GST antibody. After an incubation period at room temperature, TR-FRET (time-resolved fluorescence resonance energy transfer) was measured using a filter-based instrument capable of TR-FRET, e.g. PerkinElmer Envision.

For assay [2], the target named is T2, glutathione-S-transferase (GST) tagged LXRbeta LBD (ligand binding domain) (Homo sapiens, UniProt P55055).
T2 construct: purchased Invitrogen pv4658.pps
T2 sequence (P55055 222-460 limits assumed): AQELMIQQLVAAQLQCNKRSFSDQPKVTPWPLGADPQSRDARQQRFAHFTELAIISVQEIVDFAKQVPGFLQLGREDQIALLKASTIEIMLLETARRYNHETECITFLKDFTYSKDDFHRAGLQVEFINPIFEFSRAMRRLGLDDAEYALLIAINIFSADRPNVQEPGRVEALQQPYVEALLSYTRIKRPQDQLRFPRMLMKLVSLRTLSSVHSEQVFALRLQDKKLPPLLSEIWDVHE
Briefly: LanthaScreen TR-FRET Liver X Receptor Coactivator Assay, LXR beta-LBD. Format: biochemical. The note with it: for Emax: efficacy in relation to reference dual agonist T1317, read-out: LXR beta activity at max dose (%) (Emax); for EC50: potency (Inflection Point) of co-activator recruitment, TR-FRET, read-out: LXR beta IP. The protocol: as §1
On the technique in general: TR-FRET usually uses a lanthanide donor and a delayed reading to cut background.

In the case of `CN(C)C(=O)c1ccc(-c2ccc(N3CC4CCC(C3)N4S(=O)(=O)c3c(Cl)cccc3Cl)c(Cl)c2)cc1Cl` [Example 8-16, 3,3′-dichloro-4′-{8-[(2,6-dichlorophenyl)sulfonyl]-3,8-diazabicyclo[3.2.1]oct-3-yl}-N,N-dimethylbiphenyl-4-carboxamide], the Emax is 79% in assay [1] and 82% in assay [2]. The EC50 in assay [1] is 569 nM; in assay [2], 37 nM.
For `CN(CC(O)c1ccccc1)C(=O)c1ccc(-c2cnc(N3CCN(C(=O)OC(C)(C)C)CC3)c(C#N)c2)cc1Cl` (stereo not shown) [Example 5-29, tert-butyl 4-(5-{3-chloro-4-[(2-hydroxy-2-phenylethyl)(methyl)carbamoyl]phenyl}-3-cyanopyridin-2-yl)piperazine-1-carboxylate] the same measures were 30%, 75%, 6580 nM and 1170 nM.
For the compound `CN(C)C(=O)c1ccc(-c2cnc(N3CCN(C(=O)C4(c5ccccc5)CCC4)CC3)c(C#N)c2)cc1Cl` [Example 2-23, 2-chloro-4-(5-cyano-6-{4-[(1-phenylcyclobutyl)carbonyl]piperazin-1-yl}pyridin-3-yl)-N,N-dimethylbenzamide], the Emax in assay [1] amounted to 47%; in assay [2], 97%. The figures for the EC50 in assay [1] and in assay [2] were 1140 nM and 43 nM, respectively.
On the same counts, the results for `CC(C)(C)OC(=O)N1CCN(c2ncc(-c3ccc(C(=O)NCCCO)c(Cl)c3)cc2C#N)CC1` [Example 5-10, tert-butyl 4-(5-{3-chloro-4-[(3-hydroxypropyl)carbamoyl]phenyl}-3-cyanopyridin-2-yl)piperazine-1-carboxylate] are 37%, 63%, 2710 nM and 1090 nM.
On the same counts, the results for `CC(C)(C)OC(=O)N1CCN(c2ncc(-c3ccc(C(=O)N4CCC4)c(Cl)c3)cc2C#N)CC1` [Example 5-4, tert-butyl 4-{5-[4-(azetidin-1-ylcarbonyl)-3-chlorophenyl]-3-cyanopyridin-2-yl}piperazine-1-carboxylate] are 39%, 71%, 21200 nM and 1520 nM.
`C=Cc1cc(-c2ccc(C(=O)N(C)C)c(Cl)c2)cnc1N1CCN(C(=O)OC(C)(C)C)CC1` [Example 9-2, tert-butyl 4-{5-[3-chloro-4-(dimethylcarbamoyl)phenyl]-3-ethenylpyridin-2-yl}piperazine-1-carboxylate]: in assay [1], the Emax came out at 38% and the EC50 came out at 3440 nM. For the same compound, in assay [2], the Emax worked out at 49% and the EC50 is 161 nM.
On the same counts, the results for `CN(C)C(=O)c1ccc(-c2cnc(N3CCN(C(=O)C4Cc5ccccc54)CC3)c(C#N)c2)cc1Cl` (stereo not shown) [Example 2-13, 4-{6-[4-(bicyclo[4.2.0]octa-1,3,5-trien-7-ylcarbonyl)piperazin-1-yl]-5-cyanopyridin-3-yl}-2-chloro-N,N-dimethylbenzamide] are 50%, 8050 nM, 108% and 57 nM.
For `CN(C)C(=O)c1ccc(-c2cnc(N3CCN(C(=O)C(C)(C)c4ccccc4)CC3)c(C#N)c2)cc1Cl` [Example 2-18, 2-chloro-4-{5-cyano-6-[4-(2-methyl-2-phenylpropanoyl)piperazin-1-yl]pyridin-3-yl}-N,N-dimethylbenzamide] the same measures were 43%, 16400 nM, 99% and 15 nM.
For `CN(C)C(=O)c1ccc(-c2ccc(N3CCN(C(=O)OC(C)(C)C)CC3)c(C#N)c2)cc1Cl` [Example 8-15, tert-butyl 4-[3′-chloro-3-cyano-4′-(dimethylcarbamoyl)biphenyl-4-yl]piperazine-1-carboxylate] the same measures were 54%, 3890 nM, 81% and 177 nM.
For the compound `CN(C)C(=O)c1ccc(-c2cnc(N3CCN(S(=O)(=O)c4ccccc4Cl)CC3)c(C#N)c2)cc1Cl` [Example 1-11, 2-chloro-4-(6-{4-[(2-chlorophenyl)sulfonyl]piperazin-1-yl}-5-cyanopyridin-3-yl)-N,N-dimethylbenzamide], the Emax is 51% in assay [1] and 108% in assay [2]. For the same compound, the EC50 in assay [1] was determined as 3410 nM; in assay [2], 8 nM.
On the same counts, the results for `CN(CC(O)c1ccc(O)cc1)C(=O)c1ccc(-c2cnc(N3CCN(C(=O)OC(C)(C)C)CC3)c(C#N)c2)cc1Cl` (stereo not shown) [Example 5-31, tert-butyl 4-[5-(3-chloro-4-{[2-hydroxy-2-(4-hydroxyphenyl)ethyl](methyl)carbamoyl}phenyl)-3-cyanopyridin-2-yl]piperazine-1-carboxylate] are 27%, 67%, 8530 nM and 1860 nM.
Take `CCC(C)S(=O)(=O)N1CCN(c2ncc(-c3ccc(C(=O)N(C)C)c(Cl)c3)cc2C#N)CC1` (stereo not shown) [Example 1-4, 2-chloro-4-(5-cyano-6-{4-[(1-methylpropyl)sulfonyl]piperazin-1-yl}pyridin-3-yl)-N,N-dimethylbenzamide]: in assay [1], the Emax stood at 44% and the EC50 amounted to 49000 nM. In addition, in assay [2], the Emax came out at 81% and the EC50 amounted to 279 nM.
On the same counts, the results for `CN(C)C(=O)c1ccc(-c2cnc(N3CCN(S(=O)(=O)c4ccccc4)CC3)c(C#N)c2)cc1Cl` [Example 1-16, 2-chloro-4-{5-cyano-6-[4-(phenylsulfonyl)piperazin-1-yl]pyridin-3-yl}-N,N-dimethylbenzamide] are 63%, 50500 nM, 69% and 144 nM.
On the same counts, the results for `CN(CCO)C(=O)c1ccc(-c2cnc(N3CCN(C(=O)OC(C)(C)C)CC3)c(C#N)c2)cc1Cl` [Example 5-1, tert-butyl-4-(5-{3-chloro-4-[(2-hydroxyethyl)(methyl)carbamoyl]phenyl}-3-cyanopyridin-2-yl)piperazine-1-carboxylate] are 68%, 1260 nM, 80% and 40 nM.
For the compound `CN(C)C(=O)c1ccc(-c2ccc(N3CC4CCC(C3)N4S(=O)(=O)c3c(Cl)cccc3Cl)cc2)cc1Cl` [Example 8-14, 3-chloro-4′-{8-[(2,6-dichlorophenyl)sulfonyl]-3,8-diazabicyclo[3.2.1]oct-3-yl}-N,N-dimethylbiphenyl-4-carboxamide], the results for the Emax in assay [1] and in assay [2] were 37% and 118%, respectively. Moreover, the results for the EC50 in assay [1] and in assay [2] were 3470 nM and 76 nM, respectively.
For `CN(CCc1ccccc1)C(=O)c1ccc(-c2cnc(N3CCN(C(=O)OC(C)(C)C)CC3)c(C#N)c2)cc1Cl` [Example 5-26, tert-butyl 4-(5-{3-chloro-4-[methyl(2-phenylethyl)carbamoyl]phenyl}-3-cyanopyridin-2-yl)piperazine-1-carboxylate] the same measures were 48%, 74%, 25900 nM and 4270 nM.
